Test: xn = mol fraction of the nth substance listed
Conditions: 298.1 K, 100 kPa

CC(=O)[O-].CC[n+]1ccn(C)c1 + CS(C)=O
Conditions	electrical conductivity [S/m]
x1 = 0.01	0.16
x1 = 0.029	0.48
x1 = 0.044	0.63
x1 = 0.055	0.73
x1 = 0.082	0.83
x1 = 0.165	1.04
x1 = 0.237	1.07
x1 = 0.313	1.01
x1 = 0.415	0.93
x1 = 0.513	0.81
x1 = 0.813	0.5
x1 = 1	0.38

CCOP(=O)([O-])OCC.CC[n+]1ccn(C)c1 + CS(C)=O
Conditions	electrical conductivity [S/m]
x1 = 0.006	0.1
x1 = 0.013	0.19
x1 = 0.04	0.48
x1 = 0.059	0.57
x1 = 0.074	0.62
x1 = 0.119	0.68
x1 = 0.169	0.64
x1 = 0.233	0.57
x1 = 0.32	0.5
x1 = 0.544	0.28

CC[n+]1ccn(C)c1.F[B-](F)(F)F + CS(C)=O
Conditions	electrical conductivity [S/m]
x1 = 0.01	0.25
x1 = 0.017	0.69
x1 = 0.021	0.67
x1 = 0.032	1.04
x1 = 0.051	1.24
x1 = 0.066	1.53
x1 = 0.097	1.68
x1 = 0.15	1.84
x1 = 0.286	1.67
x1 = 0.483	1.48
x1 = 0.782	1.13
x1 = 1	0.91
